Target: human mGluR5 (Homo sapiens, UniProt P41594)
Assay: Cell-based functional Ca2+ mobilization assay, potentiation of glutamate EC20 response (H10H cell-line)
Conditions: H10H cell-line expressing recombinant human mGluR5; for Emax / Emax (%): in presence of glutamate EC20, normalized to maximal glutamate response; for EC50 / pEC50: potentiation in presence of glutamate EC20
Procedure: Human embryonic kidney (HEK) cells transfected with rat mGluR5 were plated in clear bottom assay plates for assay in a Functional Drug Screening System (FDSS). In the alternative assay, HEK cells transfected with human mGluR5 were plated for assay in the FDSS. In some cases the HEK cells transfected with human mGluR5 are the H10H cell line. Alternatively, the HEK cells transfected with human mGluR5 are the H12H cell line. […] The cells were loaded with a Ca^2+-sensitive fluorescent dye (e.g., Fluo-4), and the plates were washed and placed in the FDSS instrument. After establishment of a fluorescence baseline for about three seconds, the compounds of the present invention were added to the cells, and the response in cells was measured. Five minutes later, an mGluR5 agonist (e.g., glutamate, 3,5-dihydroxyphenylglycine, or quisqualate) was added to the cells, and the response of the cells was measured. Potentiation of the agonist response of mGluR5 by the compounds in the present invention was observed as an increase in response to non-maximal concentrations of agonist (here, glutamate) in the presence of compound compared to the response to agonist in the absence of compound.
The above described assay can be operated in two modes. In the first mode, a range of concentrations of the present compounds were added to cells, followed by a single fixed concentration of agonist. If a compound acted as a potentiator, an EC50 value for potentiation and a maximum extent of potentiation by the compound at this concentration of agonist was determined by non-linear curve fitting. In the second mode, several fixed concentrations of the present compounds were added to various wells on a plate, followed by a range of concentrations of agonist for each concentration of present compound; the EC50 values for the agonist at each concentration of compound were determined by non-linear curve fitting. A decrease in the EC50 value of the agonist with increasing concentrations of the present compounds (a leftward shift of the agonist concentration-response curve) is an indication of the degree of mGluR5 potentiation at a given concentration of the present compound. An increase in the EC50 value of the agonist with increasing concentrations of the present compounds (a rightward shift of the agonist concentration-response curve) is an indication of the degree of mGluR5 antagonism at a given concentration of the present compound. The second mode also indicates whether the present compounds also affect the maximum response to mGluR5 to agonists.
Human mGluR5a cDNA in pCMV6-XL6 mammalian expression plasmid was purchased from OriGene Technologies, Inc. (catalogue number SC326357) and subcloned into pcDNA3.1(−). Human embryonic kidney (HEK) 293A cells were then transfected with human mGluR5a pcDNA3.1(−) using LipofectAmine 2000 (Invitrogen) and monoclones were selected and tested for functional response using a Ca^2+ mobilization assay. Monoclones were named for the species (“H” for human) plus the location on the plate (e.g. “10H”).
HEK cells transfected with the human mGluR5a receptor were plated at 15,000 cells/well in clear-bottomed poly-D-lysine-coated assay plates (BD Falcon) in glutamate-glutamine-free growth medium and incubated overnight at 37° C. and 5% CO2. The cell-line used to obtain the data reported herein was the H10H cell-line expressing the human mGluR5 receptor. Although the H10H cell-line was used to obtain the data shown herein, the H12H cell-line expressing the human mGluR5 receptor can also be used in these assays. The following day, the growth medium was removed and the cells were washed with assay buffer containing 1× Hank's balanced salt solution (Invitrogen, Carlsbad, Calif.), 20 mM HEPES, 2.5 mM probenecid, pH 7.4 and left with 20 μL of this reagent. Following this step, the cells were loaded with calcium indicator dye, fluo-4 AM, to a final concentration of 2 μM and incubated for 40-45 min at 37° C. […]

human mGluR5, sequence (P41594 21-1180 isoform P41594-2 limits assumed): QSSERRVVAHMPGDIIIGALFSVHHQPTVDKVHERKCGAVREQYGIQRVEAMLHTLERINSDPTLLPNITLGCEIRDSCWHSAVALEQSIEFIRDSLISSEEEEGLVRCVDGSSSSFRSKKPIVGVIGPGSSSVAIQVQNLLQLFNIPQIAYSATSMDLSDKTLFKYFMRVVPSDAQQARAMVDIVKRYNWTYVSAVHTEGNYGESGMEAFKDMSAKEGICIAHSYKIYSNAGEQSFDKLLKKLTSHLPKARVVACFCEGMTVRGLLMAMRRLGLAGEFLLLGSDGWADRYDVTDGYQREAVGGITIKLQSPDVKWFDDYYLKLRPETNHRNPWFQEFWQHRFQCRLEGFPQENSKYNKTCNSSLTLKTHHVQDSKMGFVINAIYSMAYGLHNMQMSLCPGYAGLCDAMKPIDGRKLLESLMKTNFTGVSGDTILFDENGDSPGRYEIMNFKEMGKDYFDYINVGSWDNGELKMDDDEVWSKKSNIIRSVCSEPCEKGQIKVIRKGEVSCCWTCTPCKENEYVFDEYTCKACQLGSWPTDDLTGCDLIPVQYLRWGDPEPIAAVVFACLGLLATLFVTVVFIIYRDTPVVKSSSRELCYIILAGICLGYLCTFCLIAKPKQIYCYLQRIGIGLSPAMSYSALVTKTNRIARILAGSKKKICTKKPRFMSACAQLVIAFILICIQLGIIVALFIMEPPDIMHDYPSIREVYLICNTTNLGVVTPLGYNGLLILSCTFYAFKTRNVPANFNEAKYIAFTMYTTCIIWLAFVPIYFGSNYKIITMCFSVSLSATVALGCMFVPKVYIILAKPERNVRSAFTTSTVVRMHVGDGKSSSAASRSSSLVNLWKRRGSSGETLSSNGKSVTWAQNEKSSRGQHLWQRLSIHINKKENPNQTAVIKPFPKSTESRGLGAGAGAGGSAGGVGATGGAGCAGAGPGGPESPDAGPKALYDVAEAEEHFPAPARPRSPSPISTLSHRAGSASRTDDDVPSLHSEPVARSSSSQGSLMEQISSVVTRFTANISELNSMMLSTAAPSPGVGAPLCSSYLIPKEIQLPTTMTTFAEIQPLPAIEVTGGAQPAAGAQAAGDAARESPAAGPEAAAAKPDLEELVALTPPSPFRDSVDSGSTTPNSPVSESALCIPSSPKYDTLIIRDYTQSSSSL

Emax [%] | EC50 [nM] | pEC50 | Emax (%) | Compound
58 | 3550 | – | – | O=C(CC1CC1)N1CCc2nc(COc3ccccc3)oc2C1 [Example B2, 5-(cyclopropylacetyl)-2-(phenoxymethyl)-4,5,6,7-tetrahydro[1,3]oxazolo[5,4-c]pyridine]
47 | 132 | – | – | O=C(c1cc(F)cc(F)c1)N1CCc2nc(COc3ccccc3)oc2C1 [Example B3, 5-[(3,5-difluorophenyl)carbonyl]-2-(phenoxymethyl)-4,5,6,7-tetrahydro[1,3]oxazolo[5,4-c]pyridine]
76 | 3390 | – | – | O=C(c1ccc(F)cc1)N1CCc2nc(COc3ccccc3)oc2CC1 [Example B4, 6-[(4-fluorophenyl)carbonyl]-2-(phenoxymethyl)-5,6,7,8-tetrahydro-4H-[1,3]oxazolo[4,5-d]azepine]
92 | 501 | – | – | O=C(c1ccc(F)cc1F)N1CCc2nc(COc3ccccc3)oc2C1 [Example B6]
74 | 219 | – | – | O=C(c1ccc(F)cc1)N1CCc2nc(COc3cccc(F)c3)oc2C1 [Example B8, 5-(4-fluorobenzoyl)-2-[(3-fluorophenoxy)methyl]-4,5,6,7-tetrahydro-oxazolo[5,4-c]pyridine]
68 | 490 | – | – | O=C(c1ccccc1F)N1CCc2nc(COc3ccccc3)oc2C1 [Example B9]
75 | – | 6.18 | – | O=C(c1ccc(F)cc1)N1CCc2nc(COc3ccc(F)cc3)oc2C1 [Example B10]
60 | – | 6.19 | – | O=C(c1ccc(F)cc1)N1CCc2nc(COc3ccc(F)c(F)c3)oc2C1 [Example B11]
– | – | 6.06 | 69 | O=C(c1ccc(F)cc1F)N1CCc2nc(COc3ccccc3)sc2C1 [Example B12]
68 | 1150 | – | – | O=C(c1ccc(F)cc1)N1CCc2nc(COc3ccccc3F)oc2C1 [Example B13]
48 | 1550 | – | – | O=C(c1ccc(F)cc1)N1CCc2nc(/C=C/c3ccccc3)oc2C1 [Example B14]
– | – | 6.43 | 74 | O=C(c1cccc(F)c1F)N1CCc2nc(COc3ccccc3)oc2C1 [Example B15]
82 | 372 | – | – | O=C(c1c(F)cccc1F)N1CCc2nc(COc3ccccc3)oc2C1 [Example B16]
– | – | 6.60 | 86 | O=C(c1ccc(F)c(F)c1)N1CCc2nc(COc3ccccc3)oc2C1 [Example B17]
– | – | 5.33 | 69 | O=C(c1cccnc1)N1CCc2nc(COc3ccccc3)oc2C1 [Example B18]
69 | 4790 | – | – | O=C(c1ccncc1)N1CCc2nc(COc3ccccc3)oc2C1 [Example B19]
– | – | 5.82 | 72 | O=C(OCc1ccccc1)N1CCc2nc(COc3ccccc3)oc2C1 [Example B20]
– | – | 6.05 | 81 | O=C(c1ccc(F)cc1)N1Cc2nc(COc3ccccc3)oc2C1 [Example B21]
65 | 1620 | – | – | O=C(c1ccc(F)cc1)N1CCc2oc(COc3ccccc3)nc2C1 [Example B22]
– | – | <5 | 54 | O=C(c1ccccn1)N1CCc2nc(COc3ccccc3)oc2C1 [Example B23]
53 | > 10000 | – | – | CC(=O)N1CCc2nc(COc3ccccc3)oc2C1 [Example B24]
– | – | 6.35 | 83 | O=C(c1ccc(F)cc1)N1CCCc2nc(COc3ccccc3)sc2C1 [Example B25]
– | – | 6.24 | 72 | O=C(c1cccc(F)c1F)N1CCc2nc(COc3cccc(F)c3)oc2C1 [Example B28]
– | – | 6.62 | 75 | O=C(c1ccc(F)c(F)c1)N1CCc2nc(COc3cccc(F)c3)oc2C1 [Example B29]
47 | 1820 | – | – | O=C(c1ccc(F)cc1)N1CCc2nc(/C=C/c3ccccc3)oc2CC1 [Example B31, 6-(4-fluorobenzoyl)-5,6,7,8-tetrahydro-2-[(E)-2-phenylethenyl]-4H-oxazolo[4,5-d]azepine]
